Source: patent US12391686B2, “Compounds and uses thereof” (Foghorn Therapeutics Inc., priority 2019, dated 2025)

target: T1, Nanoluciferase-BRD9 fusion protein (3×FLAG-NLuc-BRD9) in SYO-1 cells (Homo sapiens, UniProt Q9H8M2); assay: SYO1 BRD9 NanoLuc Degradation Assay; format: cell-based; conditions: Table 6B; SYO-1 cells expressing 3×FLAG-NLuc-BRD9, 6 hours incubation, 1 μM top dose; read-out: SYO1 BRD9-NanoLuc degradation IC50
T1 construct: expressed in transfected cells; host or cells: SYO-1
T1 sequence (Q9H8M2 1-597): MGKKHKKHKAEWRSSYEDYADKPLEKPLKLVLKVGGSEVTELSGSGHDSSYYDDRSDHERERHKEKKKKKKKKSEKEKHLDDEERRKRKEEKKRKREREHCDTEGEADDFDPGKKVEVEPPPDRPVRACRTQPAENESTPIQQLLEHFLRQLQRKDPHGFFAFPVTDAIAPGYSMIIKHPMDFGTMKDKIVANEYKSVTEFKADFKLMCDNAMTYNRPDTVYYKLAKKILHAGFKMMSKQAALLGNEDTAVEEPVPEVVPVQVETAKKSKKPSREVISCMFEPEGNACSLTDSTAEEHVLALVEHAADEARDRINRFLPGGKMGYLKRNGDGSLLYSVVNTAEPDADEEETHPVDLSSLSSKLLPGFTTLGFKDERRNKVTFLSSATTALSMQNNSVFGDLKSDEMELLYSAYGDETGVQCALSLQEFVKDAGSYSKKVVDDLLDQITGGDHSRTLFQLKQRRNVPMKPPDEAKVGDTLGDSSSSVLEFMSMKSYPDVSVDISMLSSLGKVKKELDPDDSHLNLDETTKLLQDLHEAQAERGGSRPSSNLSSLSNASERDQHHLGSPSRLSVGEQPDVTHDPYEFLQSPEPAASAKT
Experimental: Procedure: A stable SYO-1 cell line expressing 3×FLAG-NLuc-BRD9 was generated. On day 0 cells were seeded in 30 μL media into each well of 384-well cell culture plates. The seeding density was 8000 cells/well. On day 1, cells were treated with 30 nL DMSO or 30 nL of 3-fold serially DMSO-diluted compounds (10 points in duplicates with 1 μM as final top dose). Subsequently plates were incubated for 6 hours in a standard tissue culture incubator and equilibrated at room temperature for 15 minutes. Nanoluciferase activity was measured by adding 15 μL of freshly prepared Nano-Glo Luciferase Assay Reagent (Promega N1130), shaking the plates for 10 minutes and reading the bioluminescence using an EnVision reader.
Results: The Inhibition % was calculated using the following formula: % Inhibition=100×(LumHC−Lumsample)/(LumHC−LumLC). DMSO treated cells are employed as High Control (HC) and 1 μM of a known BRD9 degrader standard treated cells are employed as Low Control (LC).

Row | SMILES | DC50 [nM]
1 | COc1cc(-c2cn(C)c(=O)c3cnc(N(C)C)cc23)cc(OC)c1CN1CCC(C(C)N2CCC3(CC2)CC(Oc2ccc4c(c2)C(=O)N(C2CCC(=O)NC2=O)C4=O)C3)CC1 (stereo not drawn) [Compound D75] | < 10
2 | COc1cc(-c2cn(C)c(=O)c3cnc(N4CCC4)cc23)cc(OC)c1CN1CCC(C(=O)N2CCC3(CC2)CC(Oc2ccc4c(c2)C(=O)N(C2CCC(=O)NC2=O)C4=O)C3)CC1 (stereo not drawn) [Compound D79] | < 10
3 | COc1cc(-c2cn(C)c(=O)c3cnc(N4CCC4)cc23)cc(OC)c1CN1CCC(CN2CCC3(CC2)CC(Oc2ccc4c(c2)C(=O)N(C2CCC(=O)NC2=O)C4=O)C3)CC1 (stereo not drawn) [Compound D80] | < 10
4 | COc1cc(-c2cn(C)c(=O)c3cnc(N(C)C)cc23)cc(OC)c1CN1CCC(C[N+]2(C)CCC3(CC2)CC(Oc2ccc4c(c2)C(=O)N(C2CCC(=O)NC2=O)C4=O)C3)CC1 (stereo not drawn) [Compound D84] | 10 to 100
5 | COc1cc(-c2cn(C)c(=O)c3cnc(N(C)C)cc23)cc(OC)c1CN1CCC(CCN2CCN(c3ccc4c(c3)C(=O)N(C3CCC(=O)N(COC(=O)OC(C)C)C3=O)C4=O)CC2)CC1 (stereo not drawn) [Compound D85] | < 10
6 | COc1cc(-c2cn(C)c(=O)c3cnc(N(C)C)cc23)cc(OC)c1CN1CCC(n2cc([C@H](C)Oc3ccc4c(c3)C(=O)N(C3CCC(=O)NC3=O)C4=O)nn2)CC1 (stereo partly drawn) [Compound D87] | < 10
7 | COc1cc(-c2cn(C)c(=O)c3cnc(N(C)C)cc23)cc(OC)c1CN1CCC(CCN2CCN(C3CCC(=O)NC3=O)C(=O)C2)CC1 (stereo not drawn) [Compound D88] | 10 to 100
8 | COc1cc(-c2cn(C)c(=O)c3cnc(N(C)C)cc23)cc(OC)c1CN1CC(N2CCN(C3CCC(=O)NC3=O)C(=O)C2)C1 (stereo not drawn) [Compound D94] | 10 to 100
9 | COc1cc(-c2cn(C)c(=O)c3cnc(N(C)C)cc23)cc(OC)c1CN1CC(C(C)(C)N2CCC3(CC2)CN(c2ccc4c(c2)C(=O)N(C2CCC(=O)NC2=O)C4=O)C3)C1 (stereo not drawn) [Compound D97] | < 10
10 | COc1cc(-c2cn(C)c(=O)c3cnc(N(C)C)cc23)cc(OC)c1CN1CCC(C(N2CCC3(CC2)CC(Oc2ccc4c(c2)C(=O)N(C2CCC(=O)NC2=O)C4=O)C3)C(F)(F)F)CC1 (stereo not drawn) [Compound D99] | < 10
11 | COc1cc(-c2cn(C)c(=O)c3cnc(N(C)C)cc23)cc(Cl)c1CN1CCC(CN2CCC3(CC2)CC(Oc2ccc4c(c2)C(=O)N(C2CCC(=O)NC2=O)C4=O)C3)CC1 (stereo not drawn) [Compound D101] | < 10
12 | COc1cc(-c2cn(C)c(=O)c3cnc(N(C)C)cc23)cc(Cl)c1CN1CCC(C(=O)N2CCC3(CC2)CC(Oc2ccc4c(c2)C(=O)N(C2CCC(=O)NC2=O)C4=O)C3)CC1 (stereo not drawn) [Compound D102] | < 10
13 | COc1cc(-c2cn(C)c(=O)c3cnc(N(C)C)cc23)cc(OC)c1CN1CCC(CN2CCC3(CC2)CC(Oc2ccc4c(c2)CN(C2CCC(=O)NC2=O)C4=O)C3)CC1 (stereo not drawn) [Compound D103] | < 10
14 | CNc1cc2c(-c3cc(OC)c(CN4CCN(CCC5CCN(c6ccc7c(c6)C(=O)N(C6CCC(=O)NC6=O)C7=O)CC5)CC4)c(OC)c3)cn(C)c(=O)c2cn1 (stereo not drawn) [Compound D106] | < 10
15 | COc1cc(-c2cn(C)c(=O)c3cnc(N(C)C)cc23)cc(OC)c1CN1CCC(CN2CCC3(CC2)CC(Oc2ccc4c(c2)C(=O)N(C2CCC(=O)NC2=O)C4)C3)CC1 (stereo not drawn) [Compound D107] | < 10
16 | COc1cc(-c2cn(C)c(=O)c3cnc(N(C)C)cc23)cc(OC)c1CN1CCC(C(C)(C)N2CCC3(CC2)CC(Oc2ccc4c(c2)C(=O)N(C2CCC(=O)NC2=O)C4=O)C3)CC1 (stereo not drawn) [Compound D108] | < 10

The next lines start with the values.

Row | DC50 [nM] | SMILES
17 | 10 to 100 | COc1cc(-c2cn(C)c(=O)c3cnc(N(C)C)cc23)cc(OC)c1CN1CCC(CCNC(=O)NCc2ccc3c(c2)C(=O)N(C2CCC(=O)NC2=O)C3=O)CC1 (stereo not drawn) [Compound D74]
18 | < 10 | COc1cc(-c2cn(C)c(=O)c3cnc(N(C)C)cc23)cc(OC)c1CN1CCN([C@@H](C)COc2ccc3c(c2)C(=O)N(C2CCC(=O)NC2=O)C3=O)CC1 (stereo partly drawn) [Compound D76]
19 | < 10 | COc1cc(-c2cn(C)c(=O)c3cnc(N(C)C)cc23)cc(OC)c1CN1CCN([C@H](C)COc2ccc3c(c2)C(=O)N(C2CCC(=O)NC2=O)C3=O)CC1 (stereo partly drawn) [Compound D77]
20 | < 10 | COc1cc(-c2cn(C)c(=O)c3cnc(N(C)C)cc23)cc(OC)c1CN1CCN(C(C)(C)COc2ccc3c(c2)C(=O)N(C2CCC(=O)NC2=O)C3=O)CC1 (stereo not drawn) [Compound D78]
21 | < 10 | COc1cc(-c2cn(C)c(=O)c3cnc(N(C)C)cc23)cc(OC)c1CN1CCN(C(C)(C)COc2cccc3c2C(=O)N(C2CCC(=O)NC2=O)C3=O)CC1 (stereo not drawn) [Compound D81]
22 | < 10 | COc1cc(-c2cn(C)c(=O)c3cnc(N(C)C)cc23)cc(OC)c1CN1CCN(C[C@@H](C)Oc2ccc3c(c2)C(=O)N(C2CCC(=O)NC2=O)C3=O)CC1 (stereo partly drawn) [Compound D82]
23 | < 10 | COc1cc(-c2cn(C)c(=O)c3cnc(N(C)C)cc23)cc(OC)c1CN1CCN(C[C@H](C)Oc2ccc3c(c2)C(=O)N(C2CCC(=O)NC2=O)C3=O)CC1 (stereo partly drawn) [Compound D83]
24 | < 10 | COc1cc(-c2cn(C)c(=O)c3cnc(N(C)C)cc23)cc(OC)c1CN1Cc2cc3c(cc2C1)C(=O)N(C1CCC(=O)NC1=O)C3=O (stereo not drawn) [Compound D86]
25 | < 10 | COc1cc(-c2cn(C)c(=O)c3cnc(N(C)C)cc23)cc(OC)c1CN1CC(C#Cc2ccc3c(c2)C(=O)N(C2CCC(=O)NC2=O)C3=O)C1 (stereo not drawn) [Compound D89]
26 | < 10 | COc1cc(-c2cn(C)c(=O)c3cnc(N(C)C)cc23)cc(OC)c1CN1CCC2(CCN(c3ccc4c(c3)C(=O)N(C3CCC(=O)NC3=O)C4=O)C2)C1 (stereo not drawn) [Compound D90]
27 | < 10 | COc1cc(-c2cn(C)c(=O)c3cnc(N(C)C)cc23)cc(OC)c1CN1CCC2(C1)CN(c1ccc3c(c1)C(=O)N(C1CCC(=O)NC1=O)C3=O)C2 (stereo not drawn) [Compound D91]
28 | < 10 | COc1cc(-c2cn(C)c(=O)c3cnc(N(C)C)cc23)cc(OC)c1CN1CCC2CN(c3ccc4c(c3)C(=O)N(C3CCC(=O)NC3=O)C4=O)C21 (stereo not drawn) [Compound D92]
29 | < 10 | COc1cc(-c2cn(C)c(=O)c3cnc(N(C)C)cc23)cc(OC)c1CN1CCC2C(C1)CN2c1ccc2c(c1)C(=O)N(C1CCC(=O)NC1=O)C2=O (stereo not drawn) [Compound D93]
30 | < 10 | COc1cc(-c2cn(C)c(=O)c3cnc(N(C)C)cc23)cc(OC)c1CN1CCN(C2(COc3ccc4c(c3)C(=O)N(C3CCC(=O)NC3=O)C4=O)COC2)CC1 (stereo not drawn) [Compound D95]
31 | < 10 | COc1cc(-c2cn(C)c(=O)c3cnc(N(C)C)cc23)cc(OC)c1CN1CCN(CC(C)(C)Oc2ccc3c(c2)C(=O)N(C2CCC(=O)NC2=O)C3=O)CC1 (stereo not drawn) [Compound D96]
32 | < 10 | COc1cc(-c2cn(C)c(=O)c3cnc(N(C)C)cc23)cc(OC)c1CN1CC(Oc2ccc3c(c2)C(=O)N(C2CCC(=O)NC2=O)C3=O)C1 (stereo not drawn) [Compound D98]
33 | < 10 | COc1cc(-c2cn(C)c(=O)c3cnc(N(C)C)cc23)cc(OC)c1CN1CCN(C2(COc3cccc4c3C(=O)N(C3CCC(=O)NC3=O)C4=O)COC2)CC1 (stereo not drawn) [Compound D100]
34 | < 10 | COc1cc(-c2cn(C)c(=O)c3cnc(N(C)C)cc23)cc(OC)c1CN1CCC(c2ccc3c(c2)C(=O)N(C2CCC(=O)NC2=O)C3=O)CC1 (stereo not drawn) [Compound D104]
35 | < 10 | COc1cc(-c2cn(C)c(=O)c3cnc(N(C)C)cc23)cc(OC)c1CN1CCN(CCC2CCN(c3ccc4c(c3)C(=O)N(C3CCC(=O)NC3=O)C4=O)CC2)CC1 (stereo not drawn) [Compound D105]
36 | < 10 | COc1cc(-c2cn(C)c(=O)c3cnc(N(C)C)cc23)cc(OC)c1CN1CCN(C2(COc3ccc4c(c3)C(=O)N(C3CCC(=O)NC3=O)C4=O)CC2)CC1 (stereo not drawn) [Compound D109]
